Experimental data reported in US12422437B2, “Methods of screening for condensate-associated specificity and uses thereof” (Dewpoint Therapeutics, Inc., priority 2019, dated 2025).

Assays:
Assay type in all cases: cell-based, human
[1] = test system: stress granules (FUS, eIF3, G3BP1) in HeLa Kyoto, HeLa BAC FUS-GFP and iPS FUS-GFP cells; assay: Screen for compounds altering FUS, eIF3 and G3BP1 levels in stress granules of arsenate-stressed cells (Example 1); conditions: compound 1 μM, 5 μM or 25 μM for one hour, then 2 mM Potassium Arsenate 1 hour; confocal fluorescence imaging; FIGS. 1-4
Excerpt: Stress granules are condensates that form in the cytoplasm of cells under stress. Multiple proteins are known to be concentrated in stress granules, including FUS, eukaryotic initiation factor 3 (eIF3), and G3BP1. FUS is involved in pre-mRNA maturation, and various mutations in FUS have been associated with ALS. Although FUS is found in stress granules, it is not believed to be critical for formation of stress granules. Like FUS, eIF3 is also not believed to be critical for formation of stress granules. As the name indicates, eIF3 is a eukaryotic initiation factor, but it is also involved in translational recycling. By contrast, G3BP1 is believed to initiate formation of stress granules and is potentially critical to maintaining their structure. G3BP1 is an RNA binding protein and an element of the Ras signaling transduction pathway. These three proteins were tracked within cells to determine if compounds could preferentially exclude one of these proteins from stress granules without dissolving the stress granule.
(§1) Three cell lines (HeLa Kyoto, HeLa comprising a bacterial artificial chromosome (BAC) encoding FUS-GFP, and induced pluripotent stem cells (iPS) expressing FUS-GFP) were separately grown in culture. 1200 compounds from a compound library were exposed individually at concentrations of 1 μM, 5 μM, or 25 μM to one of the cell lines for one hour. For some compounds, this procedure was repeated for one or both of the other cell lines. Cells that were not exposed to the compounds (DMSO-only vehicle treatment) were used as controls. The cells were then exposed to arsenate stress for 1 hour to stimulate the formation of stress granules, using a final concentration of 2 mM Potassium Arsenate (Sigma A6631, diluted in PBS).
(§2) After stress treatment, the cells were fixed with a final concentration of 3.7% Formaldehyde (FA) for 15 minutes at room temperature. Subsequently, cells were washed using a plate washer, permeabilized (10 min at RT using 0.1% Triton X/PBS) and blocked (30 min with 0.2% Fish skin gelatin/PBS). For cells expressing FUS-GFP, GFP fluorescence was observed directly. For the other protein markers of interest a combination of anti-FUS (Sigma AMAb90549; 1:500), anti-eIF3 (Santa Cruz sc-137214; 1:500), and anti-G3BP1 (Invitrogen PA5-29455; 1:4000) antibodies and appropriate secondary antibodies (Life Technologies; Alexa 594 and 647) was applied to visualize FUS, eIF3, and G3BP1 protein in the cells.
(§3) A spinning disk confocal microscope was used to acquire images of the samples using confocal fluorescence at 405/488/561/640 nm. 40× air objective lenses were used to capture the images. The gain was set to 1.4 and binning to 1. The exposure times were adjusted to the fluorescence emission intensity specific for each label. Exposure times ranged from 100-300 ms. Appropriate filter settings were used, matching the excitation and emission spectra of the label. Image acquisition was automated, and the resulting data were analyzed using KNIME (Berthold et al., 2008, Data Analysis, Machine Learning and Applications. Studies in Classification, Data Analysis, and Knowledge Organization. Springer, Berlin, Heidelberg) and CellProfiler (Carpenter et al., 2006, Genome Biol 7:R100). Twenty-five imaging parameters were extracted for each image, including marker signal droplet count, area, shape, etc. For each imaging parameter, the Z′ factor for the entire plate was calculated according to the following formula: Z′=1−[3*(SD(pos)+SD(neg))/(Avg(pos)−Avg(neg))] where SD(pos) is the standard deviation of the positive control, SD(neg) is the standard deviation of the negative control, Avg(pos) is the average of the positive control and Avg(neg) is the average of the negative control.
In addition, z-scores were calculated for every test compound using the formula: z=(x−x)/S where x is the mean of the sample, and S is the standard deviation of the sample. […] Results

[2] = test system: stress granules (FUS, eIF3, G3BP1) in HeLa Kyoto, HeLa BAC FUS-GFP and iPS FUS-GFP cells; assay: Screen for macromolecule and tissue specificity on stress granules of arsenate-stressed cells (Example 2); conditions: compound 1 μM, 5 μM or 25 μM for one hour, then 2 mM Potassium Arsenate 1 hour; confocal fluorescence imaging; FIGS. 5-10
Experimental: as §1, with “In brief, three” for “Three”, “lines. […]” for “lines.”
as §2
as §3, with “40× (primary screen) and 20× (potency testing)” for “40×”, “Heidelberg),” for “Heidelberg) and”, “7:R100); or, for potency testing, data were analyzed using Harmony (PerkinElmer, Waltham MA) and Vault (Collaborative Drug Discovery, Burlingame CA).” for “7:R100).”
In addition, z-scores were calculated for every test compound using the formula: z=(x−x)/S where x is the mean of the sample, and S is the standard deviation of the sample.

[3] = test system: stress granules of stressed HeLa cells carrying BAC FUS-GFP; assay: Dose-response / potency testing for FUS, eIF3 and G3BP1 in stress granules (FIG. 11); conditions: 0.0021-30 μM, number of cytoplasmic drops per cell, four parameter logistic fit
Excerpt: FIG. 11 is a plot of dose-response curves for FUS, eIF3, and G3BP1 in stress granules of stressed HeLa cells carrying BAC FUS-GFP treated with YM155.
The methods used in this example were similar to those discussed in Example 1. In brief, three cell lines (HeLa Kyoto, HeLa comprising a bacterial artificial chromosome (BAC) encoding FUS-GFP, and induced pluripotent stem cells (iPS) expressing FUS-GFP) were separately grown in culture. 1200 compounds from a compound library were exposed individually at concentrations of 1 μM, 5 μM, or 25 μM to one of the cell lines for one hour. For some compounds, this procedure was repeated for one or both of the other cell lines. […]
A spinning disk confocal microscope was used to acquire images of the samples using confocal fluorescence at 405/488/561/640 nm. […] The exposure times were adjusted to the fluorescence emission intensity specific for each label. […] Image acquisition was automated, and the resulting data were analyzed using KNIME (Berthold et al., 2008, Data Analysis, Machine Learning and Applications. Studies in Classification, Data Analysis, and Knowledge Organization. Springer, Berlin, Heidelberg), CellProfiler (Carpenter et al., 2006, Genome Biol 7:R100); or, for potency testing, data were analyzed using Harmony (PerkinElmer, Waltham MA) and Vault (Collaborative Drug Discovery, Burlingame CA). […]

Row | Structure (SMILES) | Selective and Non-Selective Condensate Disrupters (selectivity of exclusion of FUS, eIF3, G3BP1 from stress granules) [1] | Selectivity (Selective and Non-Selective Condensate Disrupters) [2] | potency (similar to IC50) for exclusion of a specific protein from stress granules relative to others [3]
1 | COc1cc(N2CCC(N)CC2)ccc1Nc1ncc(Cl)c(-c2c[nH]c3ccccc23)n1 [AZD3463] | FUS-selective |  | 
2 | COc1cc(CCc2cc(NC(=O)c3ccc(N4C[C@@H](C)N[C@@H](C)C4)cc3)n[nH]2)cc(OC)c1 [AZD4547] | Non-selective |  | 
3 | CNC(=O)CN1CCC(Oc2cc3c(Nc4cccc(Cl)c4F)ncnc3cc2OC)CC1 [AZD8931] | eIF3-selective |  | 
4 | CC1(C)CCC2=C(O1)c1ccccc1C(=O)C2=O [Beta-Lapachone] | eIF3-selective | eIF3-selective | 
5 | Cn1cc(C2=C(c3cn(CCCSC(=N)N)c4ccccc34)C(=O)NC2=O)c2ccccc21 [Bisindolylmaleimide IX] |  | eIF3-selective | 
6 | C[C@H]1CCC/C=C/[C@@H]2C[C@H](O)C[C@H]2[C@H](O)/C=C/C(=O)O1 [Brefeldin A] | FUS-selective |  | 
7 | COc1cc2c(Oc3ccc4[nH]c(C)cc4c3F)ncnc2cc1OCCCN1CCCC1 [Cediranib] |  | eIF3 and FUS- selective | 
8 | Cc1cc2cc3ccc(N(C)C)cc3nc2cc1N [Coriphosphine O] |  | FUS-selective | 
9 | O=C(O)CCc1ccc(NCc2cccc(Oc3ccccc3)c2)cc1 [GW9508] | FUS-selective |  | 
10 | O=C(c1ccc(F)cc1)C1CCN(CCn2c(=O)[nH]c3ccccc3c2=O)CC1 [Ketanserin] | FUS-selective |  | 
11 | NC(=O)CCCCC1CCSS1 (stereo not drawn) [Lipoamide] | Non-selective | Non-selective | 
12 | Cc1ccc(NC(=O)c2ccc(CN3CCN(C)CC3)cc2)cc1Nc1nc(-c2cccnc2)cs1 [Masitinib] |  | FUS protein and iPSC cell selective | 
13 | COc1ncc(-c2ccc3nccc(-c4ccnnc4)c3c2)cc1NS(=O)(=O)c1ccc(F)cc1F [Omipalisib] | Non-selective |  | 
14 | COc1ccc(-c2cc3c(C)nc(N)nc3n(C3CCC(OCCO)CC3)c2=O)cn1 (stereo not drawn) [PF-04691502] |  | Non-selective | 
15 | Cc1cnc(Nc2ccc(N3CCN(C)CC3)cc2)nc1Nc1cccc(S(=O)(=O)NC(C)(C)C)c1 [TG101209] | Non-selective | Non-selective | 
16 | COCCn1c2c([n+](Cc3cnccn3)c1C)C(=O)c1ccccc1C2=O.[Br-] [YM155 (Sepantronium Bromide), Sepantronium Bromide] | eIF3-selective | eIF3-selective | exclusion of eIF3 at lower concentration of compound relative to FUS and G3BP1
